{"source": "patent US8637523B2", "about": "“Compounds for the reduction of beta-amyloid production” (Bristol-Myers Squibb Company, priority 2010, dated 2014)", "data": [{"test_system": "Aβ42", "experiment": "Cellular assay for inhibition of Aβ1-42 production (H4 APP751 SWE clone 8.20)", "format": "cell-based", "settings": "19 h, H4 APP751 SWE clone 8.20 cells, 19 h incubation; read-out: Activity Rating (Aβ42 cellular IC50), class symbol", "outline": "(§1)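 19 h cell treatment, 37 °C/5% CO2. Detection of secreted Aβ42 in the cell plate: 565 (Aβ42-specific, Wallac) and 26D6 (N-terminal, APC), overnight 4 °C. IC50 from fitted curves.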", "units": {"IC50": "nM"}, "values": [{"compound": "CN1C/C=C\\COc2cc(ccc2-n2cnc(Cl)c2)Nc2nc3c(c1n2)CCC3c1ccc(F)cc1F", "note": "(centres unmarked) [Example 18A, (11Z)-7-(4-chloro-1H-imidazol-1-yl)-18-(2,4-difluorophenyl)-14-methyl-10,13,14,16,17,18-hexahydro-15,2-(azeno)-8,4-(metheno)cyclopenta[h][1,6,10,12]oxatriazacycloheptadecine]", "IC50": "< 10"}, {"compound": "CN1CCCCOc2cc(ccc2-n2cnc(Cl)c2)Nc2nc3c(c1n2)CCC3c1ccc(F)cc1F", "note": "(centres unmarked) [Example 19A, 7-(4-chloro-1H-imidazol-1-yl)-18-(2,4-difluorophenyl)-14-methyl-10,11,12,13,14,16,17,18-octahydro-15,2-(azeno)-8,4-(metheno)cyclopenta[h][1,6,10,12]oxatriazacycloheptadecine]", "IC50": "< 10"}, {"compound": "CN1CCCOc2cc(ccc2-n2cnc(Cl)c2)Nc2nc3c(c1n2)CCC3c1ccc(F)cc1F", "note": "(centres unmarked) [Example 20A, 7-(4-chloro-1H-imidazol-1-yl)-17-(2,4-difluorophenyl)-13-methyl-11,12,13,15,16,17-hexahydro-10H-14,2-(azeno)-8,4-(metheno)cyclopenta[g][1,5,9,11]oxatriazacyclohexadecine]", "IC50": "< 10"}, {"compound": "N#Cc1ccc2cc1OCCCCNc1nc(nc3c1CCC3c1ccccc1)N2", "note": "(centres unmarked) [Example 23A, 7-cyano-18-phenyl-10,11,12,13,14,16,17,18-octahydro-15,2-(azeno)-8,4-(metheno)cyclopenta[h][1,6,10,12]oxatriazacycloheptadecine]", "IC50": "10 to 100"}, {"compound": "CN1C/C=C\\COc2cc(ccc2C#N)Nc2nc3c(c1n2)CCC3c1ccc(F)cc1F", "note": "(centres unmarked) [Example 28B, (11Z)-7-cyano-18-(2,4-difluorophenyl)-14-methyl-10,13,14,16,17,18-hexahydro-15,2-(azeno)-8,4-(metheno)cyclopenta[h][1,6,10,12]oxatriazacycloheptadecine]", "IC50": "100 to 1000"}]}, {"test_system": "Aβ42", "experiment": "Cellular assay for inhibition of Aβ1-42 production (H4 APP751 SWE clone 8.20)", "format": "cell-based", "settings": "19 h, H4 APP751 SWE clone 8.20 cells, 19 h incubation; unit inferred; read-out: Activity Rating (Aβ42 cellular IC50), numeric value", "outline": "as §1", "units": {"IC50": "nM"}, "values": [{"compound": "CN1C/C=C\\COc2cc(ccc2-n2cnc(Cl)c2)Nc2nc3c(c1n2)CCC3c1ccc(F)cc1F", "note": "(centres unmarked) [Example 18B, (11Z)-7-(4-chloro-1H-imidazol-1-yl)-18-(2,4-difluorophenyl)-14-methyl-10,13,14,16,17,18-hexahydro-15,2-(azeno)-8,4-(metheno)cyclopenta[h][1,6,10,12]oxatriazacycloheptadecine]", "IC50": 47}, {"compound": "CN1CCCOc2cc(ccc2-n2cnc(Cl)c2)Nc2nc3c(c1n2)CCC3c1ccc(F)cc1F", "note": "(centres unmarked) [Example 20B, 7-(4-chloro-1H-imidazol-1-yl)-17-(2,4-difluorophenyl)-13-methyl-11,12,13,15,16,17-hexahydro-10H-14,2-(azeno)-8,4-(metheno)cyclopenta[g][1,5,9,11]oxatriazacyclohexadecine]", "IC50": 11}, {"compound": "CN1C/C=C\\COc2cc(ccc2C#N)Nc2nc3c(c1n2)CCC3c1ccc(F)cc1F", "note": "(centres unmarked) [Example 28A, (11Z)-7-cyano-18-(2,4-difluorophenyl)-14-methyl-10,13,14,16,17,18-hexahydro-15,2-(azeno)-8,4-(metheno)cyclopenta[h][1,6,10,12]oxatriazacycloheptadecine]", "IC50": 13}]}, {"test_system": "Aβ42", "experiment": "Cellular assay for inhibition of Aβ1-42 production (H4 APP751 SWE clone 8.20)", "format": "cell-based", "settings": "H4 APP751 SWE clone 8.20 cells, 19 h incubation; read-out: Activity Rating (Aβ42 cellular IC50), class symbol", "outline": "as §1", "units": {"IC50": "nM"}, "values": [{"compound": "Fc1ccc(C2CCc3c4nc(nc32)Nc2ccc(-n3cnc(Cl)c3)c(c2)OCC=CCN4)c(F)c1", "note": "(centres unmarked) [Example 15A, (11E)-7-(4-chloro-1H-imidazol-1-yl)-18-(2,4-difluorophenyl)-10,13,14,16,17,18-hexahydro-15,2-(azeno)-8,4-(metheno)cyclopenta[h][1,6,10,12]oxatriazacycloheptadecine]", "IC50": "< 10"}, {"compound": "Clc1cn(-c2ccc3cc2OCC=CCCc2nc(nc4c2CCC4c2ccccc2)N3)cn1", "note": "(centres unmarked) [Example 17B, (11E)-7-(4-chloro-1H-imidazol-1-yl)-18-phenyl-10,13,14,16,17,18-hexahydro-15,2-(azeno)-8,4-(metheno)cyclopenta[h][1,10,12]oxadiazacycloheptadecine]", "IC50": "10 to 100"}, {"compound": "CN1CCCCOc2cc(ccc2-n2cnc(Cl)c2)Nc2nc3c(c1n2)CCC3c1ccc(F)cc1F", "note": "(centres unmarked) [Example 19B, 7-(4-chloro-1H-imidazol-1-yl)-18-(2,4-difluorophenyl)-14-methyl-10,11,12,13,14,16,17,18-octahydro-15,2-(azeno)-8,4-(metheno)cyclopenta[h][1,6,10,12]oxatriazacycloheptadecine]", "IC50": "10 to 100"}, {"compound": "N#Cc1ccc2cc1OCC=CCNc1nc(nc3c1CCC3c1ccccc1)N2", "note": "(centres unmarked) [Example 22A, (11E)-7-cyano-18-phenyl-10,13,14,16,17,18-hexahydro-15,2-(azeno)-8,4-(metheno)cyclopenta[h][1,6,10,12]oxatriazacycloheptadecine]", "IC50": "10 to 100"}, {"compound": "N#Cc1ccc2cc1OCC=CCNc1nc(nc3c1CCC3c1ccc(F)cc1F)N2", "note": "(centres unmarked) [Example 24A, (11Z)-7-cyano-18-(2,4-difluorophenyl)-10,13,14,16,17,18-hexahydro-15,2-(azeno)-8,4-(metheno)cyclopenta[h][1,6,10,12]oxatriazacycloheptadecine]", "IC50": "< 10"}, {"compound": "CN1CC=CCOc2cc(ccc2C#N)Nc2nc3c(c1n2)CCC3c1ccccc1", "note": "(centres unmarked) [Example 29A, (11Z)-7-cyano-14-methyl-18-phenyl-10,13,14,16,17,18-hexahydro-15,2-(azeno)-8,4-(metheno)cyclopenta[h][1,6,10,12]oxatriazacycloheptadecine]", "IC50": "< 10"}, {"compound": "CN1CC=CCOc2cc(ccc2C#N)Nc2nc3c(c1n2)CCC3c1ccccc1", "note": "(centres unmarked) [Example 29B, (11Z)-7-cyano-14-methyl-18-phenyl-10,13,14,16,17,18-hexahydro-15,2-(azeno)-8,4-(metheno)cyclopenta[h][1,6,10,12]oxatriazacycloheptadecine]", "IC50": "100 to 1000"}, {"compound": "CN1CC=CCOc2cc(ccc2C#N)Nc2nc3c(c1n2)CCC3c1ccccc1", "note": "(centres unmarked) [Example 30A, (11E)-7-cyano-14-methyl-18-phenyl-10,13,14,16,17,18-hexahydro-15,2-(azeno)-8,4-(metheno)cyclopenta[h][1,6,10,12]oxatriazacycloheptadecine]", "IC50": "10 to 100"}]}, {"test_system": "Aβ42", "experiment": "Cellular assay for inhibition of Aβ1-42 production (H4 APP751 SWE clone 8.20)", "format": "cell-based", "settings": "H4 APP751 SWE clone 8.20 cells, 19 h incubation; unit inferred; read-out: Activity Rating (Aβ42 cellular IC50), numeric value", "outline": "as §1", "units": {"IC50": "nM"}, "values": [{"compound": "Fc1ccc(C2CCc3c4nc(nc32)Nc2ccc(-n3cnc(Cl)c3)c(c2)OCC=CCN4)c(F)c1", "note": "(centres unmarked) [Example 15B, (11E)-7-(4-chloro-1H-imidazol-1-yl)-18-(2,4-difluorophenyl)-10,13,14,16,17,18-hexahydro-15,2-(azeno)-8,4-(metheno)cyclopenta[h][1,6,10,12]oxatriazacycloheptadecine]", "IC50": 23}, {"compound": "Clc1cn(-c2ccc3cc2OCC=CCCc2nc(nc4c2CCC4c2ccccc2)N3)cn1", "note": "(centres unmarked) [Example 17A, (11E)-7-(4-chloro-1H-imidazol-1-yl)-18-phenyl-10,13,14,16,17,18-hexahydro-15,2-(azeno)-8,4-(metheno)cyclopenta[h][1,10,12]oxadiazacycloheptadecine]", "IC50": 5.6}, {"compound": "N#Cc1ccc2cc1OCC=CCNc1nc(nc3c1CCC3c1ccccc1)N2", "note": "(centres unmarked) [Example 21A, (11Z)-7-cyano-18-phenyl-10,13,14,16,17,18-hexahydro-15,2-(azeno)-8,4-(metheno)cyclopenta[h][1,6,10,12]oxatriazacycloheptadecine]", "IC50": 7.8}, {"compound": "N#Cc1ccc2cc1OCC=CCNc1nc(nc3c1CCC3c1ccc(F)cc1F)N2", "note": "(centres unmarked) [Example 24B, (11Z)-7-cyano-18-(2,4-difluorophenyl)-10,13,14,16,17,18-hexahydro-15,2-(azeno)-8,4-(metheno)cyclopenta[h][1,6,10,12]oxatriazacycloheptadecine]", "IC50": 43}]}]}
